Laboratory results as given in patent publication US20090318465A1, “METHOD FOR IDENTIFYING COMPOUNDS THAT ACT AS INSULIN-SENSITIZERS” (priority 2006, published 2009).
Entries after “also recorded” stand apart in the source; their conditions may differ.

Tests used:
[1] = test system: genetically diabetic db/db BL/6J mice; experiment: Screening in db/db BL/6J mice, plasma glucose reduction; assay type: in vivo; conditions: 10 days
Experimental: In an embodiment, the method includes selecting 6-8 weeks old male db/db mice based on blood glucose levels determined after withholding feed for four hours. For example, the method can employ animals with plasma glucose levels in a suitable range, such as 300-500 mg/dl. The selected mice can be orally dosed with test (lead) compound, for example, in 0.5% carboxy methyl cellulose (CMC) vehicle at a suitable frequency and for a suitable time, such as twice daily for 10 consecutive days. This embodiment of the method can include obtaining blood on, for example, day 5 and day 10, after withholding feed for four hours, and determining plasma glucose levels. These levels can be determined using enzymatic methods (e.g., Diasys kit, Germany) in an autoanalyser. Lead compounds are considered to be in vivo actives if they produce statistically significant fall in plasma glucose on day 10 compared to mice treated with 0.5% CMC vehicle. Rosiglitazone can be used as a standard at 5 mg per kg (mpk) bid for comparison with test compounds.
The protocol was designed as in references. • 1.
The screening of compounds was based on their ability to reduce the plasma glucose levels in genetically diabetic db/db BL/6J mice.
Male db/db mice (obtained from the Animal House of Nicholas Piramal Research Centre, Goregaon, Mumbai, India) were used for this study (body weight in the range of 30-40 g and age is 6-8 weeks) and were kept eight per cage in individually ventilated cages at controlled temperature (22±1° C.) and humidity (45±5%). Food and water were provided ad libitum during their laboratory stay, except for four hours fasting prior to blood sample collection. 12 hours light and dark cycle was followed during the whole study period.
After 4 hours fasting blood samples were collected from mice. Mice showing plasma glucose levels between 300 to 500 mg/dl were divided in groups (8-10 per group) such that the mean plasma glucose levels and variation within the group, for each group, is nearly same. After grouping, mice in respective groups received treatment with 0.5% CMC vehicle, standard compound or test compounds for 10 days. Rosiglitazone was used as a standard.
After 4 hours fasting, mice were anaesthetized using isoflurane (inhalation anesthetic), and blood samples were collected through the retro orbital plexus. Collected blood samples were centrifuged at 7000 rpm for 10 minutes at 4° C.; Separated plasma was used for estimation of plasma glucose using diagnostic kits (Diasys, Germany). Plasma glucose levels of treated groups were normalized with control group using the following formula, which accounted for the changes in control group.

[2] = test system: dexamethasone treated insulin resistant 3T3-L1 adipocytes; experiment: Insulin resistance assay (IR assay), 14C-2-deoxyglucose uptake; assay type: cell-based, mouse; conditions: for % of Rosiglitazone (comparison with Rosiglitazone): test compound 10 μM/mL versus Rosiglitazone 0.1 μM; for Fold vehicle (fold activity over vehicle): test compound 10 μM/mL, glucose uptake with 200 nM insulin, vehicle = 1.0
From the text: A suitable insulin resistance assay includes screening of compounds which act as insulin-sensitizers using chronically dexamethasone treated 3T3-L1 adipocytes as an in vitro model. This is a known model for studying insulin signaling and insulin resistance. Chronically dexamethasone treated 3T3-L1 adipocytes serve as a valid in vitro model of insulin resistance resembling diabetes patients.
In an embodiment, the method according to the present invention includes screening compounds identified as active in the phenotype-based assay against dexamethasone treated insulin resistant adipocytes. For example, the method can include applying actives from the insulin sensitivity assay at a concentration of 1-10 μM to the insulin resistant adipocytes for 1-4 days. The adipocytes were previously prepared for the assay by long term exposure to dexamethasone, for example, at 100 nM for about 24-48 hours.
The method can also include determining whether the compounds enhance glucose uptake in the insulin resistant adipocytes by more than 50% above that enhanced by insulin. The method can then include selecting compounds as active, if they caused 1.5 fold or more increase in glucose uptake compared to insulin treated adipocytes. Glucose uptake can be measured by any of a variety of known methods, such as measuring uptake of ^14C-labeled 2-deoxyglucose, a non metabolisable analogue of D-Glucose.
The assay was designed as in the reference, British Journal of Pharmacology, 130, 351-58, 2000, which is incorporated herein by reference for disclosure of the assay.
The solution of test compound (10 μM/mL) was prepared in DMSO.
Rosiglitazone (0.1 μM in DMSO) was used as standard.
Differentiation into adipocytes was induced by known methods as described below. (J. Biol. Chem., 260, 2646-2652, 1985, which is incorporated herein by reference for disclosure of the induction).
Culture medium containing […] 1-methyl-3-isobutylxanthine (IBMX), 0.25 μM dexamethasone, 5 μg/ml insulin (bovine/human), 10 mM HEPES buffer and fetal bovine serum (FBS) 10% by volume in Dulbecco's modified Eagle's medium (DMEM) was used for differentiation.
3T3 L1 fibroblasts were seeded in 24-well or 6-well plates at a density of 0.5-2×10^4 cells/well and were allowed to reach maximal confluency.
The confluent fibroblasts were exposed to culture medium for 2 days. After this period, fresh culture medium (DMEM) containing only insulin was used, 10% FBS was added and cultured for 4 days with change of medium every 2 days. After 7 days the cultures received DMEM containing 10% FBS with no exposure to insulin. By the end of 8-10 days, more than 95% of the cells have become differentiated into adipocytes.
The mature adipocytes were exposed to dexamethasone, 100 nM added in ethanol, in culture medium and incubated for 2 days. On the third day, solution of test compound was added along with 100 nM dexamethasone containing medium for 4 days with a change in medium after every 2 days. Vehicle control contained 1% v/v of DMSO. Rosiglitazone was used as a standard and was added at a concentration of 0.1 μM in DMSO, along with 100 nM dexamethasone containing medium for 4 days with a change in medium after every 2 days. After a total period of 6 days, the cells were processed for glucose uptake as follows.
The insulin resistant adipocytes were exposed to serum-free DMEM containing 0.1% bovine serum albumin for 3-4 hours at 37° C. in CO2 atmosphere. The test compound was also present during this period. After 3-4 hours, the medium was aspirated and replaced with Kreb's Ringer phosphate (KRP) buffer at pH 7.4 and with human/porcine insulin, 200 nM. The cells were incubated for 30 minutes at 37° C. At the end of 30 minutes, 0.05 or 0.1 μCi of ^14C-2-deoxyglucose was added to each well of either 24-well or 6-well plates respectively and was incubated for exactly 5 minutes. After exactly 5 minutes, the plates were transferred to ice trays and medium was rapidly aspirated. […]

db/db mice = experiment: Evaluation of lipid levels (dyslipidemia) in db/db mice; assay type: in vivo; conditions: 15 days
Experimental: (§1) Body weight was measured daily. On day 15, the animals were deprived of food for 4 hours after the last dose administration. Blood was collected at the end of the 4-hour period using heparinised capillaries by a retro-orbital puncture. Plasma samples were analyzed for, triglyceride and cholesterol, using the autoanalyser.
The assay was designed as in the reference, Metabolism, 49 (1), 22-31, 2000, the disclosure of which is incorporated by reference for the teaching of the assay.
as §1, with “Seven groups of male db/db mice (8 animals per group) were used. […] Body” for “Body”, “for glucose, triglyceride,” for “for, triglyceride and”

[3] = test system: diet induced obese (DIO) mice; experiment: Evaluation of antiobesity, chronic study in diet induced obese mice; assay type: in vivo; conditions: 10 days, vs vehicle
From the text: In an embodiment, the method includes selecting 17-18 week old male diet induced obese (DIO) mice, which were maintained on a high fat diet (D12451, Research Diets Inc, New Brunswick, N.J. 08901, USA, 45% kcal from fat), based on body weight. The selected mice can be dosed intraperitoneally with test (lead) compound, for example, in 0.5% CMC vehicle at a suitable frequency and for a suitable time, such as once daily for 10 consecutive days. This embodiment of the method can include recording body weight and food weight daily. Lead compounds are considered to be in vivo active if they produce statistically significant decrease in cumulative food intake for up to 1 day and a statistically significant decrease in cumulative body weight gain on day 10 as compared to mice treated with the 0.5% CMC vehicle. Sibutramine can be used as a standard at 3 mpk for comparison.
The assay was designed as in the reference, British Journal of Pharmacology, 132, 1898-1904, 2001, the disclosure of which is incorporated by reference for the teaching of the assay.
Male C57BI6/J mice (3-4 weeks of age) were housed in groups of 10 animals per cage in the animal facility. High fat diet (D12451 Research Diets Inc., New Brunswick, N.J. 08901, USA, 45% kcal from fat) and water was provided ad libitum for 14 weeks. After this period, the animals were housed individually in cages. The animals were weighed and separated into groups with similar body weight. They were acclimatised to the experimental procedures for 2 days. Animals were dosed intraperitoneally with test compound (200 mpk) or the standard (3 mpk) in 10 mL/kg of 0.5% CMC vehicle between 10:00 am-12:00 noon. After drug administration the animals were presented with a pre-weighed amount of food in the food cup. Weight of feed remaining in the cup and body weight were recorded daily just prior to dosing. The change in weight and cumulative food intake were computed.

SMILES	Normalization with control (plasma glucose reduction) ([1]; 100 mpk bid, oral, 4 h fasted)	% of Rosiglitazone (comparison with Rosiglitazone) [2]	Fold vehicle (fold activity over vehicle) [2]	further results
COC(=O)C(Cc1ccc(OCCN(C)C(=O)OC(C)(C)C)cc1)(OC)C(=O)OC [Compound 1, 2-{4-[2-(tert-Butoxycarbonyl-methyl-amino)-ethoxy]-benzyl}-2-methoxy-malonic acid dimethyl ether]	42.93 ± 4.95	72.5 ± 2.6%	2.2 ± 0.18	
COC(Cc1ccc(OCCN(C)C(=O)OC(C)(C)C)cc1)C(=O)O (stereo not shown) [Compound 2, 3-{4-[2-(tert-Butoxycarbonyl-methyl-amino)-ethoxy]-phenyl}-2-methoxy-propionic acid]	45.14 ± 4.92	105 ± 3.6%	2.62 ± 0.05	
CC(C)(COC(=O)COc1ccc(C(=O)CN2Cc3cc(C(N)=S)ccc3C2=O)cc1)NS(=O)(=O)c1cccnc1 [Compound 3, {4-[2-(1-Oxo-5-thiocarbamoyl-1,3-dihydro-isoindol-2-yl)-acetyl]-phenoxy}-aceticacid-2-methyl-2-(pyridine-3-sulfonylamino)-propyl ester]		31.6 ± 6.2%	1.48 ± 0.09	Normalization with control (plasma glucose reduction) ([1]; 50 mpk od): Inactive
CCOC(=O)CCN1Cc2cc(NCCN(C)c3nc4ccccc4o3)ccc2C1=O [Compound 4, 3-{5-[2-(Benzooxazol-2-yl-methyl-amino)-ethylamino]-1-oxo-1,3-dihydro-isoindol-2-yl}propionic acid ethyl ester]		76.8 ± 12.4%	1.88 ± 0.14	Normalization with control (plasma glucose reduction) ([1]; 50 mpk bid): 24.99 ± 17.92
O=S(=O)(Nc1cnc(Oc2cc3ccccc3cn2)c(Cl)c1)c1ccc(Cl)cc1Cl [Compound 5, 2,4-Dichloro-N-[5-chloro-6-(isoquinolin-3-yloxy)pyridin-3-yl]-benzene sulfonamide]		78.7 ± 3.5%	2.41 ± 0.06	Normalization with control (plasma glucose reduction) ([1]; 150 mpk od): 43.2 ± 15.7; reduction in cholesterol levels (db/db mice; doses higher than 50 mpk oral bid): 26%
CC(=O)N1CCN(c2ccc(Oc3ncc(NS(=O)(=O)c4ccc(Cl)cc4Cl)cc3Cl)cc2)CC1 [Compound 6, N-{6-[4-(4-Acetyl-piperazin-1-yl)-phenoxy]-5-chloro-pyridin-3-yl}-2,4-dichloro benzenesulfonamide]	46.07 ± 4.55	61.4 ± 3.15%	2.10 ± 0.05	cumulative food intake ([3]; 200 mpk intraperitoneally, FIG. 4, 200 mg/kg): effective in reducing cumulative food intake; also recorded: significantly inhibited food intake; cumulative body weight gain ([3]; 200 mpk intraperitoneally, FIG. 5, 200 mg/kg): effective in reducing cumulative body weight gain; also recorded: inhibited body weight gain on all days
CC(=O)N1CCN(c2ccc(Oc3ncc(NC(=O)CCC(=O)O)cc3Cl)cc2)CC1 [Compound 7]	Inactive	27.5 ± 3.0%	1.49 ± 0.05	
COc1ccc(S(=O)(=O)Nc2cnc(Oc3cnc4ccccc4c3)c(Cl)c2)cc1 [Compound 8, N-[5-Chloro-6-(quinolin-3-yloxy)-pyridine-3-yl]-4-methoxy-benzene sulfonamide]	41.90 ± 3.84	66.4 ± 5.2%	2.19 ± 0.09	
CN(CCOc1ccc(CC2SC(=O)NC2=O)cc1)c1ccccn1 (stereo not shown) [Rosiglitazone]				decrease in plasma triglyceride levels (db/db mice; Rosiglitazone 5 mpk oral bid): 40%; reduction in cholesterol levels (db/db mice; Rosiglitazone 5 mpk oral bid): 27%
CC(C)CC(N(C)C)C1(c2ccc(Cl)cc2)CCC1 (stereo not shown) [Sibutramine, reference compound]				cumulative food intake ([3]; standard 3 mpk intraperitoneally, FIG. 4): significantly inhibited food intake; cumulative body weight gain ([3]; standard 3 mpk intraperitoneally, FIG. 5): inhibited body weight gain on all days
